Measurements reported in patent US12655125B2 (SIRONAX LTD., priority 2020, dated 2026).

The compounds below were run on HT-29 cells (assay: HT29 Cells 0FBS Assay In Vitro (TNF-α/SMAC mimetic/zVAD-FMK induced necroptosis, CellTiter-Glo cell viability)). Conditions: Homo sapiens; HT-29 cells, FBS free medium, TNF-α (10 ng/ml), SMAC mimetic (6 uM), zVAD-FMK (10 μM), 20 hours; geometric mean EC50; read-out: Cell activity (EC50) of Compounds 1-116.
Format: cell-based
From the text: Protocol for HT29 Cells 0FBS Assay In Vitro
• Cell line: HT-29 (ATCC® HTB-38™) • Culture medium: McCOY's 5 A, Gibco, Cat No. 16600-082 • FBS, Gibco, Cat No. 10099-141C • Trypsin: Gibco, Cat No. 25200-056 • DMSO: Sigma, Cat No. 67-68-5, 1 L • Assay plate: Corning #3903 • Compound dilution plate: Corning #3357 • Inducers: TNFα, GenScript, Cat No. ZO1001-50, • SmacM, Cat. No., HY-15989, MedChemExpress (MCE) • Z_VAD FMK, TargetMol, T6013 • Cell Titer-Glo® Luminescent Cell Viability Assay Kit: Promega, Cat No. G7573 • EnVision: PerkinElmer, 2105-0010 2. Cell Seeding of HT-29 Cells • 1) HT-29 cells were checked every day to make sure they are healthy and growing as expected. They were split sub-culturing when were approximately 80% confluent. • 2) First pre-warm the culture medium of McCOY's 5 A medium (Gibco, Cat No. 16600-082) with 10% FBS (Gibco, Cat No. 10099-141C) in 37° C. water bath for at least 30 min. • 3) Growing cells to desired level of confluency 80% in a T75 flask, aspirate the medium, and wash with warm PBS two times. • 4) Add 2-3 ml fresh warm trypsin (Gibco, Cat No. 25200-056) solution. Transfer the flask to a 37° C. incubator. • 5) After 5 minutes, tap the side of the flask, and examine the flask under a microscope for lifting. If necessary, return the cells to the incubator for an additional 5-10 minutes, with occasional tapping, until lifting is complete. • 6) Quickly neutralize the trypsin reaction by adding 6-9 ml cell culture medium, then transfer the cells to sterile 15 ml conical tubes. Pellet the cells by centrifugation at 300×g for 7 minutes, then decant the supernatant. • 7) Resuspend the cells in fresh cell culture medium. Do cell counting with hemocytometer. • 8) Seed 100 μl of 5,000 cells into each well of the sterile 96-well cell culture plate (Corning 3903) and culture overnight at 37° C. with 5% C02. 3. Compounds Titration and Treatment of HT-29 Cells • 1) All batches of compounds (CPDs) (e.g., compound 1-281) were dissolved in DMSO (Dimethyl sulfoxide) as 20 mM stock solution. • 2) Take 3 ul 20 mM stock solution of CPDs to 27 ul DMSO and mix well, continue the titration ratio of 1:3 (20 ul CPDs+40 ul DMSO), e.g., to give solutions of CPDS at 6.6 mM, 2.2 mM, etc., till the 10 points end. • 3) Take out assay plates with HT-29 cells from incubator, remove all culture medium then wash 1 time with 1×PBS, and change fresh McCOY's 5 A medium of FBS free with a cocktail of TNF-α (10 ng/ml), the SMAC mimetic (6 uM) and zVAD-FMK (10 μM) to stimulate the HT-29 cells to increase pRIPK1 levels and necroptosis. • 4) Add 0.5 μL of the diluted compound to the corresponding 96-well assay plates. • 5) Incubate the assay plates for 20 hours at 37° C. with 5% C02. 4. Performing Cell Viability Detection of HT-29 Cells after Treated with Compounds • 1) The CellTiter-Glo® Luminescent Cell Viability Assay was employed to detect the ATP levels of viable HT-29 cells. • 2) Equilibrate the CellTiter-Glo® buffer and the lyophilized substrate to room temperature prior to use. • 3) Resuspend the CellTiter-Glo® substrate with CellTiter-Glo® buffer, mix by gently vortexing to obtain a homogeneous solution. • 4) Pipette 20 μl the enzyme/substrate mixture by multi-channel pipette into the 96-well assay plates from step 5) under the Compounds titration and treatment stage. • 5) Place the plates on an orbital shaker and mix the contents for 3 minutes to induce cell lysis. • 6) Then allow the plates to incubate at room temperature for 10 minutes to stabilize luminescent signal. • 7) Read and record luminescence signal with EnVision. • 8) The geometric mean EC50 of the compounds were calculated from points response dose with duplicate. In Tables 2 and 4, activity is provided as follows: +++=0.1 nM≤EC50<100 nM; ++=100 nM≤EC50<1000 nM; +=1000 nM≤EC50<10000 nM.

Row | Compound | EC50 [nM]
1 | Cc1cn(C)c(-c2cc(OC3CN(C(=O)N4N=CC[C@H]4c4cc(F)cc(F)c4)C3)c(F)cn2)n1 [compound 40, (S)-(5-(3,5-difluorophenyl)-4,5-dihydro-1H-pyrazol-1-yl)(3-((2-(1,4-dimethyl-1H-imidazol-2-yl)-5-fluoropyridin-4-yl)oxy)azetidin-1-yl)methanone] | 0.1 to 100
2 | Cn1nc(N)cc1-c1cc(OC2CN(C(=O)N3N=CC[C@H]3c3cc(F)cc(F)c3)C2)c(F)cn1 [compound 41, (S)-(3-((2-(3-amino-1-methyl-1H-pyrazol-5-yl)-5-fluoropyridin-4-yl)oxy)azetidin-1-yl)(5-(3,5-difluorophenyl)-4,5-dihydro-1H-pyrazol-1-yl)methanone] | 0.1 to 100
3 | Cc1cnn(C)c1-c1ncc(F)c(OC2CN(C(=O)N3N=CC[C@H]3c3cc(F)cc(F)c3)C2)n1 [compound 42, (S)-(5-(3,5-difluorophenyl)-4,5-dihydro-1H-pyrazol-1-yl)(3-((2-(1,4-dimethyl-1H-pyrazol-5-yl)-5-fluoropyrimidin-4-yl)oxy)azetidin-1-yl)methanone] | 0.1 to 100
4 | Cc1cnn(C)c1-c1cc(OC2CN(C(=O)N3N=CC[C@H]3c3cc(F)cc(F)c3)C2)c(F)cn1 [compound 43, (S)-(5-(3,5-difluorophenyl)-4,5-dihydro-1H-pyrazol-1-yl)(3-((2-(1,4-dimethyl-1H-pyrazol-5-yl)-5-fluoropyridin-4-yl)oxy)azetidin-1-yl)methanone] | 0.1 to 100
5 | Cc1ncn(C)c1-c1ccc(F)c(OC2CN(C(=O)N3N=CC[C@H]3c3cc(F)cc(F)c3)C2)n1 [compound 44, (S)-(5-(3,5-difluorophenyl)-4,5-dihydro-1H-pyrazol-1-yl)(3-((6-(1,4-dimethyl-1H-imidazol-5-yl)-3-fluoropyridin-2-yl)oxy)azetidin-1-yl)methanone] | 0.1 to 100
6 | Cc1ncn(C)c1-c1cc(OC2CN(C(=O)N3N=CC[C@H]3c3cc(F)cc(F)c3)C2)c(F)cn1 [compound 45, (S)-(5-(3,5-difluorophenyl)-4,5-dihydro-1H-pyrazol-1-yl)(3-((2-(1,4-dimethyl-1H-imidazol-5-yl)-5-fluoropyridin-4-yl)oxy)azetidin-1-yl)methanone] | 0.1 to 100
7 | Cc1nnn(C)c1-c1ncc(F)c(OC2CN(C(=O)N3N=CC[C@H]3c3cc(F)cc(F)c3)C2)n1 [compound 46, (S)-(5-(3,5-difluorophenyl)-4,5-dihydro-1H-pyrazol-1-yl)(3-((2-(1,4-dimethyl-1H-1,2,3-triazol-5-yl)-5-fluoropyrimidin-4-yl)oxy)azetidin-1-yl)methanone] | 0.1 to 100
8 | Cc1nnn(C)c1-c1cc(OC2CN(C(=O)N3N=CC[C@H]3c3cc(F)cc(F)c3)C2)c(F)cn1 [compound 47, (S)-(5-(3,5-difluorophenyl)-4,5-dihydro-1H-pyrazol-1-yl)(3-((2-(1,4-dimethyl-1H-1,2,3-triazol-5-yl)-5-fluoropyridin-4-yl)oxy)azetidin-1-yl)methanone] | 0.1 to 100
9 | Cn1ncc(C#N)c1-c1ncc(F)c(OC2CN(C(=O)N3N=CC[C@H]3c3cc(F)cc(F)c3)C2)n1 [compound 48, (S)-5-(4-((1-(5-(3,5-difluorophenyl)-4,5-dihydro-1H-pyrazole-1-carbonyl)azetidin-3-yl)oxy)-5-fluoropyrimidin-2-yl)-1-methyl-1H-pyrazole-4-carbonitrile] | 0.1 to 100
10 | Cn1ncc(C#N)c1-c1cc(OC2CN(C(=O)N3N=CC[C@H]3c3cc(F)cc(F)c3)C2)c(F)cn1 [compound 49, (S)-5-(4-((1-(5-(3,5-difluorophenyl)-4,5-dihydro-1H-pyrazole-1-carbonyl)azetidin-3-yl)oxy)-5-fluoropyridin-2-yl)-1-methyl-1H-pyrazole-4-carbonitrile] | 0.1 to 100
11 | COc1cnn(C)c1-c1cc(OC2CN(C(=O)N3N=CC[C@H]3c3cc(F)cc(F)c3)C2)c(F)cn1 [compound 50, (S)-(5-(3,5-difluorophenyl)-4,5-dihydro-1H-pyrazol-1-yl)(3-((5-fluoro-2-(4-methoxy-1-methyl-1H-pyrazol-5-yl)pyridin-4-yl)oxy)azetidin-1-yl)methanone] | 0.1 to 100
